Data taken from PubChem BioAssay AID1259407 (Chemical Carcinogenesis Research Information System (CCRIS), 2018).
Calls of active or inactive are those of the source. How the calls were made is not given here.

Test system: CCRIS mutagenicity, Ames/micronucleus/aberration tests
Test: CCRIS mutagenicity studies

## C1N2CN3CN1CN(C2)C3
End Point: In vitro chromosomal aberrations, Test System: Chinese hamster lung (CHL/IU) cells, Metabolic Activation: Rat, Liver, S9, Phenobarbital and 5,6-benzoflavone
  mutagenic call: inactive; negative
Test System: AMES SALMONELLA TYPHIMURIUM, Strain/Indicator: TA97, Metabolic Activation: HAMSTER, LIVER, S-9, AROCLOR 1254 (5 OR 30%), Method: PREINCUBATION
  mutagenic call: inactive; negative
Test System: AMES SALMONELLA TYPHIMURIUM, Strain/Indicator: TA97, Metabolic Activation: HAMSTER, LIVER, S-9, AROCLOR 1254 (10%), Method: PREINCUBATION
  mutagenic call: inactive; negative
Test System: AMES SALMONELLA TYPHIMURIUM, Strain/Indicator: TA97, Metabolic Activation: NONE, Method: PREINCUBATION
  mutagenic call: inactive; negative
Test System: AMES SALMONELLA TYPHIMURIUM, Strain/Indicator: TA97, Metabolic Activation: RAT, LIVER, S-9, AROCLOR 1254 (10%), Method: PREINCUBATION
  mutagenic call: inactive; negative
Test System: AMES SALMONELLA TYPHIMURIUM, Strain/Indicator: TA97, Metabolic Activation: RAT, LIVER, S-9, AROCLOR 1254 (30%), Method: PREINCUBATION
  mutagenic call: inactive; negative
Test System: AMES SALMONELLA TYPHIMURIUM, Strain/Indicator: TA98, Metabolic Activation: HAMSTER, LIVER, S-9, AROCLOR 1254 (10 OR 30%), Method: PREINCUBATION
  mutagenic call: inactive; negative
Test System: AMES SALMONELLA TYPHIMURIUM, Strain/Indicator: TA98, Metabolic Activation: RAT, LIVER, S-9, AROCLOR 1254 (10 OR 30%), Method: PREINCUBATION
  mutagenic call: inactive; negative
Test System: AMES SALMONELLA TYPHIMURIUM, Strain/Indicator: TA98, Metabolic Activation: RAT, LIVER, S-9, KC 500, Method: PREINCUBATION
  mutagenic call: active; positive
Test System: AMES SALMONELLA TYPHIMURIUM, Strain/Indicator: TA98, Metabolic Activation: RAT, LIVER, S-9, PCB, Method: PREINCUBATION
  mutagenic call: inactive; negative
Test System: AMES SALMONELLA TYPHIMURIUM, Strain/Indicator: TA100, Metabolic Activation: HAMSTER, LIVER, S-9, AROCLOR 1254 (10 OR 30%), Method: PREINCUBATION
  mutagenic call: inactive; negative
Test System: AMES SALMONELLA TYPHIMURIUM, Strain/Indicator: TA100, Metabolic Activation: NONE, Method: PREINCUBATION
  mutagenic call: inactive; negative
Test System: AMES SALMONELLA TYPHIMURIUM, Strain/Indicator: TA100, Metabolic Activation: RAT, LIVER, S-9, AROCLOR 1254 (10 OR 30%), Method: PREINCUBATION
  mutagenic call: inactive; negative
Test System: AMES SALMONELLA TYPHIMURIUM, Strain/Indicator: TA100, Metabolic Activation: RAT, LIVER, S-9, KC 500, Method: PREINCUBATION
  mutagenic call: active; positive
Test System: AMES SALMONELLA TYPHIMURIUM, Strain/Indicator: TA100, Metabolic Activation: RAT, LIVER, S-9, PCB, Method: PREINCUBATION
  mutagenic call: inactive; negative
Test System: AMES SALMONELLA TYPHIMURIUM, Strain/Indicator: TA1535, Metabolic Activation: HAMSTER, LIVER, S-9, AROCLOR 1254 (10 OR 30%), Method: PREINCUBATION
  mutagenic call: inactive; negative
Test System: AMES SALMONELLA TYPHIMURIUM, Strain/Indicator: TA1535, Metabolic Activation: NONE, Method: PREINCUBATION
  mutagenic call: inactive; negative
Test System: AMES SALMONELLA TYPHIMURIUM, Strain/Indicator: TA1535, Metabolic Activation: RAT, LIVER, S-9, AROCLOR 1254 (10 OR 30%), Method: PREINCUBATION
  mutagenic call: inactive; negative
Test System: AMES SALMONELLA TYPHIMURIUM, Strain/Indicator: TA1535, Metabolic Activation: RAT, LIVER, S-9, KC 500, Method: PREINCUBATION
  mutagenic call: inactive; negative
Test System: AMES SALMONELLA TYPHIMURIUM, Strain/Indicator: TA1537, Metabolic Activation: HAMSTER, LIVER, S-9, AROCLOR 1254 (10%), Method: PREINCUBATION
  mutagenic call: inactive; negative
Test System: AMES SALMONELLA TYPHIMURIUM, Strain/Indicator: TA1537, Metabolic Activation: NONE, Method: PREINCUBATION
  mutagenic call: inactive; negative
Test System: AMES SALMONELLA TYPHIMURIUM, Strain/Indicator: TA1537, Metabolic Activation: RAT, LIVER, S-9, AROCLOR 1254 (10%), Method: PREINCUBATION
  mutagenic call: inactive; negative
Test System: AMES SALMONELLA TYPHIMURIUM, Strain/Indicator: TA1537, Metabolic Activation: RAT, LIVER, S-9, KC 500, Method: PREINCUBATION
  mutagenic call: inactive; negative
Test System: AMES SALMONELLA TYPHIMURIUM, Strain/Indicator: TA1538, Metabolic Activation: HAMSTER, LIVER, S-9, AROCLOR 1254 (10 OR 30%), Method: PREINCUBATION
  mutagenic call: inactive; negative
Test System: AMES SALMONELLA TYPHIMURIUM, Strain/Indicator: TA1538, Metabolic Activation: NONE, Method: PREINCUBATION
  mutagenic call: inactive; negative
Test System: AMES SALMONELLA TYPHIMURIUM, Strain/Indicator: TA1538, Metabolic Activation: RAT, LIVER, S-9, AROCLOR 1254 (10 OR 30%), Method: PREINCUBATION
  mutagenic call: inactive; negative
Test System: AMES SALMONELLA TYPHIMURIUM, Strain/Indicator: TA1538, Metabolic Activation: RAT, LIVER, S-9, KC 500, Method: PREINCUBATION
  mutagenic call: inactive; negative
Test System: Ames Salmonella typhimurium, Strain/Indicator: TA98, Metabolic Activation: None, Method: Preincubation
  mutagenic call: inactive; negative
Test System: Ames Salmonella typhimurium, Strain/Indicator: TA98, Metabolic Activation: Rat, Liver, S9, Sodium phenobarbital and 5,6-benzoflavone (10%), Method: Preincubation
  mutagenic call: inactive; negative
Test System: Ames Salmonella typhimurium, Strain/Indicator: TA100, Metabolic Activation: None, Method: Preincubation
  mutagenic call: inactive; negative
Test System: Ames Salmonella typhimurium, Strain/Indicator: TA100, Metabolic Activation: Rat, Liver, S9, Sodium phenobarbital and 5,6-benzoflavone (10%), Method: Preincubation
  mutagenic call: inactive; negative
Test System: Ames Salmonella typhimurium, Strain/Indicator: TA1535, Metabolic Activation: None, Method: Preincubation
  mutagenic call: inactive; negative
Test System: Ames Salmonella typhimurium, Strain/Indicator: TA1535, Metabolic Activation: Rat, Liver, S9, Sodium phenobarbital and 5,6-benzoflavone (10%), Method: Preincubation
  mutagenic call: inactive; negative
Test System: Ames Salmonella typhimurium, Strain/Indicator: TA1537, Metabolic Activation: None, Method: Preincubation
  mutagenic call: inactive; negative
Test System: Ames Salmonella typhimurium, Strain/Indicator: TA1537, Metabolic Activation: Rat, Liver, S9, Sodium phenobarbital and 5,6-benzoflavone (10%), Method: Preincubation
  mutagenic call: inactive; negative
Test System: E. COLI, Strain/Indicator: WP2 UVRA, Metabolic Activation: NONE, Method: PREINCUBATION
  mutagenic call: inactive; negative
Test System: E. COLI, Strain/Indicator: WP2 UVRA, Metabolic Activation: RAT, LIVER, S-9, KC 500, Method: PREINCUBATION
  mutagenic call: inactive; negative
Test System: E. coli, Strain/Indicator: WP2uvrA/pKM101, Metabolic Activation: None, Method: Preincubation
  mutagenic call: inactive; negative
Test System: E. coli, Strain/Indicator: WP2uvrA/pKM101, Metabolic Activation: Rat, Liver, S9, Sodium phenobarbital and 5,6-benzoflavone (10%), Method: Preincubation
  mutagenic call: inactive; negative
